Data as given in ChEMBL document CHEMBL1201862, “PubChem BioAssay data set” (2004).
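Compound exposure: 48 hours, 5 concentrations, 96-well plates. The concentration for 50% growth inhibition is given as GI50.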 Calls of active or inactive are those of the source. No stated cut-off is given here; in the data, active = GI50 up to about 1.1 µM and inactive = higher.

Tests used:
Experiment in all cases: NCI-60 cell line screen, 48 h
786-0 = test system: 786-0
BT-549 = test system: BT-549
CAKI-1 = test system: CAKI-1
EKVX = test system: EKVX
HOP-92 = test system: HOP-92
IGROV-1 = test system: IGROV-1
LOX IMVI = test system: LOX IMVI
LXFL 529 = test system: LXFL 529
M14 = test system: M14
MCF7 = test system: MCF7
MDA-N = test system: MDA-N
NCI-H23 = test system: NCI-H23
PC-3 = test system: PC-3
SK-MEL-28 = test system: SK-MEL-28
SK-MEL-2 = test system: SK-MEL-2
SNB-19 = test system: SNB-19
SR = test system: SR
SW-620 = test system: SW-620
TK-10 = test system: TK-10
UO-31 = test system: UO-31

COc1cc(C(=O)c2cocc2C(=O)c2ccc3c(c2)OCO3)cc(OC)c1OC
GI50 (786-0): 0.57 µM (active)
GI50 (BT-549): 0.149 µM (active)
GI50 (CAKI-1): 0.378 µM (active)
GI50 (EKVX): 6.64 µM (inactive)
GI50 (HOP-92): 2.69 µM (inactive)
GI50 (IGROV-1): 1.5 µM (inactive)
GI50 (LOX IMVI): 0.483 µM (active)
GI50 (LXFL 529): 0.871 µM (active)
GI50 (M14): 1 µM (active)
GI50 (MCF7): 0.217 µM (active)
GI50 (MDA-N): 0.0468 µM (active)
GI50 (NCI-H23): 0.826 µM (active)
GI50 (PC-3): 0.355 µM (active)
GI50 (SK-MEL-28): 1.46 µM (inactive)
GI50 (SK-MEL-2): 0.619 µM (active)
GI50 (SNB-19): 0.933 µM (active)
GI50 (SR): 0.611 µM (active)
GI50 (SW-620): 0.316 µM (active)
GI50 (TK-10): 3.18 µM (inactive)
GI50 (UO-31): 1.58 µM (inactive)

O=c1[nH]c(=O)n(C2OC(CO)C(O)C(O)C2O)cc1F (stereo not drawn)
GI50 (786-0): > 100 µM (inactive)
GI50 (BT-549): > 100 µM (inactive)
GI50 (CAKI-1): > 100 µM (inactive)
GI50 (EKVX): > 100 µM (inactive)
GI50 (HOP-92): > 12.7 µM (inactive)
GI50 (IGROV-1): > 100 µM (inactive)
GI50 (LOX IMVI): > 100 µM (inactive)
GI50 (LXFL 529): > 100 µM (inactive)
GI50 (M14): > 100 µM (inactive)
GI50 (MCF7): > 100 µM (inactive)
GI50 (MDA-N): > 100 µM (inactive)
GI50 (NCI-H23): > 100 µM (inactive)
GI50 (PC-3): > 100 µM (inactive)
GI50 (SK-MEL-28): > 100 µM (inactive)
GI50 (SK-MEL-2): > 100 µM (inactive)
GI50 (SNB-19): > 100 µM (inactive)
GI50 (SR): > 100 µM (inactive)
GI50 (SW-620): > 100 µM (inactive)
GI50 (TK-10): > 100 µM (inactive)
GI50 (UO-31): > 100 µM (inactive)

CC1=Nc2c(O)nc(S)nc2NC(c2ccc(Cl)c(Cl)c2)C1 (stereo not drawn)
GI50 (786-0): 17.7 µM (inactive)
GI50 (CAKI-1): 30.3 µM (inactive)
GI50 (EKVX): 28.9 µM (inactive)
GI50 (HOP-92): > 93.1 µM (inactive)
GI50 (IGROV-1): 20.1 µM (inactive)
GI50 (LOX IMVI): 20 µM (inactive)
GI50 (LXFL 529): 19.4 µM (inactive)
GI50 (M14): 16.9 µM (inactive)
GI50 (NCI-H23): 19.4 µM (inactive)
GI50 (SK-MEL-28): 18.3 µM (inactive)
GI50 (SK-MEL-2): > 100 µM (inactive)
GI50 (SNB-19): > 45 µM (inactive)
GI50 (SR): > 100 µM (inactive)
GI50 (SW-620): 23.5 µM (inactive)
GI50 (TK-10): > 55.5 µM (inactive)
GI50 (UO-31): 29.9 µM (inactive)

Cc1ccc(S(=O)(=O)O/N=C2\CCC\C2=C/c2ccccc2)cc1
GI50 (786-0): 25.4 µM (inactive)
GI50 (CAKI-1): 17.6 µM (inactive)
GI50 (EKVX): 19.6 µM (inactive)
GI50 (HOP-92): 15.7 µM (inactive)
GI50 (IGROV-1): 26.2 µM (inactive)
GI50 (LOX IMVI): 25.9 µM (inactive)
GI50 (LXFL 529): 16.6 µM (inactive)
GI50 (M14): 21.3 µM (inactive)
GI50 (NCI-H23): 19.4 µM (inactive)
GI50 (SK-MEL-28): 11.1 µM (inactive)
GI50 (SK-MEL-2): 16.9 µM (inactive)
GI50 (SNB-19): 30.5 µM (inactive)
GI50 (SR): 16.4 µM (inactive)
GI50 (SW-620): 29.6 µM (inactive)
GI50 (TK-10): 16.6 µM (inactive)
GI50 (UO-31): 19.9 µM (inactive)

O=Cc1[nH]c2ccccc2c1Br
GI50 (786-0): 28 µM (inactive)
GI50 (CAKI-1): > 100 µM (inactive)
GI50 (EKVX): 35.9 µM (inactive)
GI50 (HOP-92): 26.8 µM (inactive)
GI50 (IGROV-1): 26.7 µM (inactive)
GI50 (LOX IMVI): 26.7 µM (inactive)
GI50 (LXFL 529): 25.5 µM (inactive)
GI50 (M14): 19.3 µM (inactive)
GI50 (NCI-H23): 30.3 µM (inactive)
GI50 (SK-MEL-28): 25.1 µM (inactive)
GI50 (SK-MEL-2): 15.2 µM (inactive)
GI50 (SNB-19): 24.8 µM (inactive)
GI50 (SR): 21.7 µM (inactive)
GI50 (SW-620): 34.6 µM (inactive)
GI50 (TK-10): 36.6 µM (inactive)
GI50 (UO-31): 30.8 µM (inactive)
